# Data taken from ChEMBL document CHEMBL5678818, “Discovery of potent SOS1 inhibitors that block RAS activation via disruption of the RAS-SOS1 interaction” (Proc Natl Acad Sci U S A, 2019).
# Legend:
# [1] = target: Serine/threonine-protein kinase Chk2 (Homo sapiens) (UniProt O96017); experiment: Inhibition of CHEK2 (unknown origin) assessed as residual activity at 100 nM by KINOMEscan analysis relative to control
# [2] = target: T1, Uncharacterized serine/threonine-protein kinase SBK3 (Homo sapiens) (UniProt P0C264); experiment: Inhibition of SgK110 (unknown origin) assessed as residual activity at 100 nM by KINOMEscan analysis relative to control
# T1 sequence (whole entry): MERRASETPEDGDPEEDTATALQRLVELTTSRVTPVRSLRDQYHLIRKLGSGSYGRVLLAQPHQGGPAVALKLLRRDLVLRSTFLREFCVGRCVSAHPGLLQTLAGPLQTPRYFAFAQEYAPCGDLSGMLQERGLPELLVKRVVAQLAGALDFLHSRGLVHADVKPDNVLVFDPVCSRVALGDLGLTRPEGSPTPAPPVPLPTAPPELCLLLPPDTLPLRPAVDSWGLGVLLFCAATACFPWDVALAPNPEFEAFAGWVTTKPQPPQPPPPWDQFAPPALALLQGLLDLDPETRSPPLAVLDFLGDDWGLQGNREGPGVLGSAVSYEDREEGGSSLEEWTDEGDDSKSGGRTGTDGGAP
# [3] = target: T2, Serine/threonine-protein kinase RIO3 (Homo sapiens) (UniProt O14730); experiment: Inhibition of RIOK3 (unknown origin) assessed as residual activity at 100 nM by KINOMEscan analysis relative to control
# T2 sequence (whole entry): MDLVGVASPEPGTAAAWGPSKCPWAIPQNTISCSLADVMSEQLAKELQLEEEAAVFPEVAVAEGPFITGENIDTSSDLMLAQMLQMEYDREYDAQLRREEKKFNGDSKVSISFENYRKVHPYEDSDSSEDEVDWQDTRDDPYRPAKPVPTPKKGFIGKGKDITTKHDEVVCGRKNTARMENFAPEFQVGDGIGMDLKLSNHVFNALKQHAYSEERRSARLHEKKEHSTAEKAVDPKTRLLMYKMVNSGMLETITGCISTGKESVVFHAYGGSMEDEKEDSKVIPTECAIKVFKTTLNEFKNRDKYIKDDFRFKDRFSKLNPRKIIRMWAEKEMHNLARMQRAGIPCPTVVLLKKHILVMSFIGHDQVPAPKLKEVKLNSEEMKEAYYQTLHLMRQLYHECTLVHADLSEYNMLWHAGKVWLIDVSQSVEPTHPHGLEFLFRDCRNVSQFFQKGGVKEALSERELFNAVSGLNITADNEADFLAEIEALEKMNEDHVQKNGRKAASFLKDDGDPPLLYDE
# [4] = target: T3, Tyrosine-protein kinase TXK (Homo sapiens) (UniProt P42681); experiment: Inhibition of TXK (unknown origin) assessed as residual activity at 100 nM by KINOMEscan analysis relative to control
# T3 sequence (whole entry): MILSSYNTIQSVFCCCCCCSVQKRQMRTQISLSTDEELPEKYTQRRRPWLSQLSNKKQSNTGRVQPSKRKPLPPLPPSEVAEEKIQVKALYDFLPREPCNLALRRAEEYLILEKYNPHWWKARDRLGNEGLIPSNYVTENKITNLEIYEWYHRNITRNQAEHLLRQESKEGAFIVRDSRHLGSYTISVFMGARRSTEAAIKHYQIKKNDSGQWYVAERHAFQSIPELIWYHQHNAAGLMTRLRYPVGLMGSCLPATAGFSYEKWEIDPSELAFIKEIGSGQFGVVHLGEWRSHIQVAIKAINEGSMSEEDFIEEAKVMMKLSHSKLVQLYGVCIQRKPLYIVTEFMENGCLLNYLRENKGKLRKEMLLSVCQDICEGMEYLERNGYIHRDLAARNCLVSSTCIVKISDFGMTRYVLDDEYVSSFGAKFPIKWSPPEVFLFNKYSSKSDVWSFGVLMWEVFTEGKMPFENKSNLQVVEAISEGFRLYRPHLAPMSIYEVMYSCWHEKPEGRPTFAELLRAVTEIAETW
# [5] = target: Death-associated protein kinase 1 (Homo sapiens) (UniProt P53355); experiment: Inhibition of DAPK1 (unknown origin) assessed as residual activity at 100 nM by KINOMEscan analysis relative to control
# [6] = target: T4, Serine/threonine-protein kinase LATS2 (Homo sapiens) (UniProt Q9NRM7); experiment: Inhibition of LATS2 (unknown origin) assessed as residual activity at 100 nM by KINOMEscan analysis relative to control
# T4 sequence (whole entry): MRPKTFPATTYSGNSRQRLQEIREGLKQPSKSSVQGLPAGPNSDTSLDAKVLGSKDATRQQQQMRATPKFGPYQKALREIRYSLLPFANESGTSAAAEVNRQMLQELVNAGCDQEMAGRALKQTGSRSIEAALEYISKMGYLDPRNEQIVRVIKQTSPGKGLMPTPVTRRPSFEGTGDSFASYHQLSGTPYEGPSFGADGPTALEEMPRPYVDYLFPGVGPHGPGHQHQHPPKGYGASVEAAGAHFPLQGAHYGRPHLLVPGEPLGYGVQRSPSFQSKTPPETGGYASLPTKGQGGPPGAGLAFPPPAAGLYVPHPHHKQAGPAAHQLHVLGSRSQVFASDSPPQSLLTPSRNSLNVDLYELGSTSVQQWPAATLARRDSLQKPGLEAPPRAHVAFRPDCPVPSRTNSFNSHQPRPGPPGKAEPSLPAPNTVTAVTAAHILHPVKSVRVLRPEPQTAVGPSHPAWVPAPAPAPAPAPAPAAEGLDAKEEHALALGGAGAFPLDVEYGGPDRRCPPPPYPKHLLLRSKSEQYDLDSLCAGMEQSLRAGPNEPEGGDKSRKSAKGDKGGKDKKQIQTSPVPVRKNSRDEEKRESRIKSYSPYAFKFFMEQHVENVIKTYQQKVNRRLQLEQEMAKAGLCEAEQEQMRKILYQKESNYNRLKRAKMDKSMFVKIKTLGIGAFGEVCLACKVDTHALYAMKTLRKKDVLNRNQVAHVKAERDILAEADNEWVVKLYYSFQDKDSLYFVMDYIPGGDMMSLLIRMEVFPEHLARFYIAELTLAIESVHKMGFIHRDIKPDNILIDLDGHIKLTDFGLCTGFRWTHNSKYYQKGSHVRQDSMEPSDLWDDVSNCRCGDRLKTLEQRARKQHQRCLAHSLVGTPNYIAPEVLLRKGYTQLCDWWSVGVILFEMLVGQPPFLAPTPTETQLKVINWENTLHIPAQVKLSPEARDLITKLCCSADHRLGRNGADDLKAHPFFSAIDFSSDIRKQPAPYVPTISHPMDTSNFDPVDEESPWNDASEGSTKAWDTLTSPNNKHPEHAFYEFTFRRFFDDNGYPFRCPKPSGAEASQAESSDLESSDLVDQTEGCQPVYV
# Serine/threonine-protein kinase Chk2 (Homo sapiens), sequence (O96017 whole entry): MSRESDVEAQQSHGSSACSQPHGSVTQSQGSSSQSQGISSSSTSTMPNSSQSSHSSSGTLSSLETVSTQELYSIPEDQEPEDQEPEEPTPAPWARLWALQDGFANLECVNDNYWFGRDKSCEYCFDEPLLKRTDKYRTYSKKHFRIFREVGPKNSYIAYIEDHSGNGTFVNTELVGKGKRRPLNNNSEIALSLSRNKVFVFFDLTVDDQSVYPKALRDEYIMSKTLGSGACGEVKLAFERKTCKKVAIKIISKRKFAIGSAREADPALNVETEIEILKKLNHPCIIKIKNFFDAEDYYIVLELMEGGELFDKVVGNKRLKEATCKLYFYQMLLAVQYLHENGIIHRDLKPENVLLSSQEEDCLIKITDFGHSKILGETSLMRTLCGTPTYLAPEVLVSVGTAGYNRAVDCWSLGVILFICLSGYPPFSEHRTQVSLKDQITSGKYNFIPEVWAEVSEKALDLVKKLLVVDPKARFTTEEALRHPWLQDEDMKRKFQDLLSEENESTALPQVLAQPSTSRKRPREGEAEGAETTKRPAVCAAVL
# Death-associated protein kinase 1 (Homo sapiens), sequence (P53355 whole entry, looked up): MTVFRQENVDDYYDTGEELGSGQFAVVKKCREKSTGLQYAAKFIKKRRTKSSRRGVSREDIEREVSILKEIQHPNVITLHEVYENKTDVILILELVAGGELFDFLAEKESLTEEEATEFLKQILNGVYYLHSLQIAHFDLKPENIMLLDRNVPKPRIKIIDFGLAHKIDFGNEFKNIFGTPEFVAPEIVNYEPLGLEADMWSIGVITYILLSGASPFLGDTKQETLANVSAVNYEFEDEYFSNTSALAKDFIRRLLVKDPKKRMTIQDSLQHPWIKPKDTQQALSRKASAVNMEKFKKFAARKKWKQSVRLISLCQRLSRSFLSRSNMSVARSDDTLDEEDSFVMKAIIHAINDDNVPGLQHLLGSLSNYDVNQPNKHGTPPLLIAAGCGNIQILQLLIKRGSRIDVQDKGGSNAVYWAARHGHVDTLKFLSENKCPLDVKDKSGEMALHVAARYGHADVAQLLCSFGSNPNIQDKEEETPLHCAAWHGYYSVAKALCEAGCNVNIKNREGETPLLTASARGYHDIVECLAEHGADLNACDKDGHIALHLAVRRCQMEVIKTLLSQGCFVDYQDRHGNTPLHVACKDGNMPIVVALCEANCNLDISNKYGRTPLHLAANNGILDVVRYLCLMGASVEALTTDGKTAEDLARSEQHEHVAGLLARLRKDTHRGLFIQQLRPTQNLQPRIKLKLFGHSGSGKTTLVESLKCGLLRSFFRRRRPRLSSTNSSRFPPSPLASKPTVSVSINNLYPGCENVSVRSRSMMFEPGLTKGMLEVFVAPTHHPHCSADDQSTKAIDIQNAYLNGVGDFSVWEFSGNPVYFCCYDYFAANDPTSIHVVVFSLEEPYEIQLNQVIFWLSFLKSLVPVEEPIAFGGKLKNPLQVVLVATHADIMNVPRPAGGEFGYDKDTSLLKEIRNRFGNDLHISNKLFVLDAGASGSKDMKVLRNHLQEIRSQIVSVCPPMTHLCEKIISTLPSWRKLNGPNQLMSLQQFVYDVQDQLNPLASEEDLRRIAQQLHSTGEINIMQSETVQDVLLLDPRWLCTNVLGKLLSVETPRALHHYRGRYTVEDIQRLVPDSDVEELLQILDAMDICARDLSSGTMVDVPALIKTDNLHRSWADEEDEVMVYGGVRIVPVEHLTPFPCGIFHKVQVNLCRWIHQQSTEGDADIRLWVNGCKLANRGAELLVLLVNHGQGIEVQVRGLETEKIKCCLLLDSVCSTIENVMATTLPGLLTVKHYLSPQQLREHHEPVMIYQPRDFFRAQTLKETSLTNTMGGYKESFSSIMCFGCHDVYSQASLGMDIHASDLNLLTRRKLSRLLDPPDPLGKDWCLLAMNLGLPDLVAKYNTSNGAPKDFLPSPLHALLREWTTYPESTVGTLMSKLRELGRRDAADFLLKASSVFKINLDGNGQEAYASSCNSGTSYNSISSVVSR
structure (smiles),measurement,setting,value
COc1cc2ncnc(N[C@H](C)c3cccc4ccccc34)c2cc1OC,Activity,[1],100%
same,Activity,[2],100%
same,Activity,[3],75%
same,Activity,[4],67%
same,Activity,[5],100%
same,Activity,[6],87%
